According to patent publication US7125671B2, “Nucleic acid amplification with terminal-phosphate labeled nucleotides” (GE Healthcare Bio-Sciences Corp., priority 2003, dated 2006):

Legend:
[1] = tested on: pUCp53 DNA; assay: PCR with additional nucleotides (FIG. 2); format: biochemical; conditions: labeled nucleotide replaces the normal dNTP; 0.2 mM MnCl2; primers P53SNP22C-51F and P53SNP22G131R
Method: (§1) Polymerase chain reaction (PCR) mixtures (20 μl) contained 20 mM Tris-HCL (pH 8.75), 10 mM KCL, 10 mM (NH4)2SO4, 2 mM MgSO4, 1 mg/ml bovine serum albumin and 0.1% (v/v) Triton X-100. The final nucleotide concentrations were 20 μM each, and 2.5 units of the DNA polymerase were used for each reaction. The initial template DNA (1–5 ng) was either pUC18 or pUCp53 (Amersham Biosciences). The initial amount of primer was 2 μmol each, and 2.5 units of the indicated DNA polymerase was used. Reactions were carried out for 15 thermal cycles of 90° C., 30 sec.; 55° C., 60 sec.; and 72° C., 300 sec. Most PCR reactions also included MnCl2 at a final concentration of 0.08–0.2 mM. Reaction products were loaded onto 1.6% agarose gels. The gels were stained with SYBR Gold (Molecular Probes) according to the manufacturers' instructions and scanned at 532 nm using a Typhoon fluorescence scanner (Amersham Biosciences). Gel size markers were a 100 bp ladder (Amersham Biosciences).
(§2) For both figures, the amplification reaction loaded in lane 1 was performed with normal dNTPs and without MnCl2. For the lanes marked 2, the dTTP was replaced by dT4P-DDAO and the reactions contained 0.2 mM MnCl2. For the lanes marked 3, the dGTP was replaced by dG4P-DDAO, and for the lanes marked 4, the dGTP was replaced by dG4P-MeCoumarin again with 0.2 mM MnCl2.

[2] = tested on: pUC18 DNA; assay: PCR with additional nucleotides, template and primers (FIG. 3); format: biochemical; conditions: labeled nucleotide replaces the normal dNTP; 0.2 mM MnCl2; −21 Forward and −28 Reverse primers
Method: as §1, §2

[3] = tested on: T. ba polymerase; assay: PCR amplification with terminal-phosphate labeled nucleoside polyphosphates in the presence of stabilizing additives (FIG. 6); format: biochemical, Thermococcus barosii; conditions: 10–25 mM salt; dA4P-Me, dT4P-Me, dC4P-Me, dG4P-FlEt; 0.25 mM MnCl2; M13 DNA; 35 cycles
Method: Polymerase chain reaction (PCR) mixtures (20 μl) contained 25 mM Hepes (pH 8.1), 10 mM KCl, 2 mM MgSO4, 0.25 mM MnCl2, 1 mg/ml bovine serum albumin, 0.01% (v/v) Tween-20 and 10–25 mM salt as shown in FIG. 6. Each sample also contained 20 μm each of dA4P-Me, dT4P-Me, dC4P-Me, 200 μm dG4P-FlEt, 0.006 units/μl BAP, 2 units of T. ba polymerase, 0.1 μm −40 M13 forward primer, 0.1 μm −28 M13 reverse primer and 0.2 ng M13 DNA. In addition to the terminal-phosphate labeled nucleotide, terminal methyl-blocked dNTP's were used instead of normal dNTP's to prevent degradation by BAP (phosphatase). Latter is required for signal generation from dye-polyphosphate after the nucleotide is incorporated into DNA by polymerase. Reactions were carried out for 35 thermal cycles of 90° C., 30 sec.; 55° C., 30 sec.; and 65° C., 300 sec. Reaction products were loaded onto 1.6% agarose gels. The gels were stained with SYBR Gold (Molecular Probes) according to the manufacturers' instructions and scanned at 532 nm using a Typhoon fluorescence scanner (Amersham Biosciences). Gel size markers were a 100 bp ladder (Amersham Biosciences).

[4] = Non-enzymatic hydrolysis of dT4P-DDAO in the presence of MnCl2, effect of other salts (FIG. 5); conditions: 10 or 25 mM salt; 0.5 mM MnCl2; 25 mM Hepes pH 8.1; 95° C. for 60 minutes
Method: Twenty μl of 25 mM Hepes, pH 8.1, containing 0.5 mM MnCl2, 1 μm dT4P-DDAO and 10 or 25 mM inorganic or organic salt (see FIG. 5) was heated at 95° C. for 60 minutes. 4 μl of each sample was treated with BAP as described above and read on Tecan ultra plate reader. An unheated sample with MnCl2 (water lane) and a heated sample without Hepes and MnCl2 were used as controls. Fluorescence counts were converted into % degradation as described above.

[5] = Non-enzymatic hydrolysis of terminal-phosphate labeled nucleoside polyphosphate on thermal cycling, effect of glycerol; format: physicochemical; conditions: 5% glycerol; high temperatures
Method: Seventy μl samples containing 50 mM Hepes, pH 8.0, 5 mM MgCl2, 0.5 mM MnCl2, 0.01% Tween-20, 1 μm ddT4P-EtFl, 100 nM primer/template, 0.0036 units/μl SAP with or without 5% glycerol were cycled as follows: 95° C., 30 sec and 50° C., 3 min, repeat 10 times. Amount of free dye formed was checked in a fluorimeter.

[6] = tested on: Tba exo-DNA polymerase; assay: PCR amplification of pUCp53 target with terminal-phosphate labeled nucleotide, gel and fluorescence detection; format: biochemical, Thermococcus barosii
Method: as §1
(§3) The DNA polymerases used for these experiments included Taq DNA polymerase, Thermo Sequenase DNA polymerase (Amersham Biosciences), Tba exo-DNA polymerase (from Thermococcus barosii, U.S. Pat. No. 5,602,011 with D141A and E143A amino acid substitutions U.S. Pat. No. 5,882,904), Pfu DNA polymerase (Strategene), KOD XL DNA polymerase (Novagen) and Deep Vent DNA polymerase (New England BioLabs).
For this experiment, either Taq DNA polymerase (lanes 1–3, 12), Thermo Sequenase (Amersham Biosciences) DNA polymerase (lanes 7–9, 11) or Tba exo-DNA polymerase (lanes 4–6, 10) were used. The MnCl2 concentration was 0 mM for the reactions resolved in lanes 1, 4, 7 and 10–12; 0.2 mM in lanes 2, 5, and 8; 0.4 mM in lanes 3, 6 and 9. For all samples, the template DNA was pUCp53 and the primers were P53SNP22C-51F and P53SNP22G131R. […]
(§4) Then the fluorescence was determined using a FarCYte fluorescence plate reader (Amersham Biosciences) using 650 nm excitation and 670 nm emission. […] The reaction product of Tba exo-DNA polymerase gave a reading of 31,000 fluorescence units.

[7] = target: Taq DNA polymerase (Thermus aquaticus, UniProt P19821); assay: as above; format: biochemical; conditions: lane 2 of FIG. 1, 0.2 mM MnCl2
Sequence of Taq DNA polymerase (P19821 whole entry): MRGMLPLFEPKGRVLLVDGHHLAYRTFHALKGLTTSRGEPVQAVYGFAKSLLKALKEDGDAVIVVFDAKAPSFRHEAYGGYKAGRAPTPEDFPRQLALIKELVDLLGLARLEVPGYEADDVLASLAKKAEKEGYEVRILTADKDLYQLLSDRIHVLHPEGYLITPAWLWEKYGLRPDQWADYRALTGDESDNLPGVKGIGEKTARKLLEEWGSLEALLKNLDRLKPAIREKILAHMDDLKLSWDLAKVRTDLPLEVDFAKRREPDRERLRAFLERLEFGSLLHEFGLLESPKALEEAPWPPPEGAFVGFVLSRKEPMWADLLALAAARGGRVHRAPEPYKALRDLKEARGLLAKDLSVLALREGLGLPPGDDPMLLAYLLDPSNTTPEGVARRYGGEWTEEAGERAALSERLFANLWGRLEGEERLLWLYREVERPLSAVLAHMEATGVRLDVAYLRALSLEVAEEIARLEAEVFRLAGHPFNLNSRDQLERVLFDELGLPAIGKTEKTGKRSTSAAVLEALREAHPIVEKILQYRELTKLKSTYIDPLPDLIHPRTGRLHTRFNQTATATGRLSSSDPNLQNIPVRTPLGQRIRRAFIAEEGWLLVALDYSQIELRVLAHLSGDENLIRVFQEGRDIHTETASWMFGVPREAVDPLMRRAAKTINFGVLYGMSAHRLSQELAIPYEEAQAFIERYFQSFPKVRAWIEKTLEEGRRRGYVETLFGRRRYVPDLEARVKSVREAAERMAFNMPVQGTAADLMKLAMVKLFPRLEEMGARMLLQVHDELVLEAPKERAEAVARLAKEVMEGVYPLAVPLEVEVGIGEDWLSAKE
Method: Polymerase chain reaction (PCR) mixtures (20 μl) contained 20 mM Tris-HCL (pH 8.75), 10 mM KCL, 10 mM (NH4)2SO4, 2 mM MgSO4, 1 mg/ml bovine serum albumin and 0.1% (v/v) Triton X-100. The final nucleotide concentrations were 20 μM each, and 2.5 units of the DNA polymerase were used for each reaction. The initial template DNA (1–5 ng) was either pUC18 or pUCp53 (Amersham Biosciences). The initial amount of primer was 2 μmol each, and 2.5 units of the indicated DNA polymerase was used. Reactions were carried out for 15 thermal cycles of 90° C., 30 sec.; 55° C., 60 sec.; and 72° C., 300 sec. Most PCR reactions also included MnCl2 at a final concentration of 0.08–0.2 mM. Reaction products were loaded onto 1.6% agarose gels. The gels were stained with SYBR Gold (Molecular Probes) according to the manufacturers' instructions and scanned at 532 nm using a Typhoon fluorescence scanner (Amersham Biosciences). Gel size markers were a 100 bp ladder (Amersham Biosciences). […]
as §4

[8] = tested on: KOD XL DNA polymerase; assay: PCR amplification of pUCp53 target with terminal-phosphate labeled nucleotide; format: biochemical; conditions: same conditions as FIG. 1, DDAO-dT4P replaced dTTP
Method: as §1
as §3, with “BioLabs). […]” for “BioLabs).”

[9] = target: T1, Pfu DNA polymerase (Pyrococcus furiosus, UniProt P61875); assay: as above; format: biochemical; conditions: same conditions as FIG. 1, DDAO-dT4P replaced dTTP
T1 construct: purchased Strategene (so in the source); Stratagene)
T1 sequence (P61875 1-775): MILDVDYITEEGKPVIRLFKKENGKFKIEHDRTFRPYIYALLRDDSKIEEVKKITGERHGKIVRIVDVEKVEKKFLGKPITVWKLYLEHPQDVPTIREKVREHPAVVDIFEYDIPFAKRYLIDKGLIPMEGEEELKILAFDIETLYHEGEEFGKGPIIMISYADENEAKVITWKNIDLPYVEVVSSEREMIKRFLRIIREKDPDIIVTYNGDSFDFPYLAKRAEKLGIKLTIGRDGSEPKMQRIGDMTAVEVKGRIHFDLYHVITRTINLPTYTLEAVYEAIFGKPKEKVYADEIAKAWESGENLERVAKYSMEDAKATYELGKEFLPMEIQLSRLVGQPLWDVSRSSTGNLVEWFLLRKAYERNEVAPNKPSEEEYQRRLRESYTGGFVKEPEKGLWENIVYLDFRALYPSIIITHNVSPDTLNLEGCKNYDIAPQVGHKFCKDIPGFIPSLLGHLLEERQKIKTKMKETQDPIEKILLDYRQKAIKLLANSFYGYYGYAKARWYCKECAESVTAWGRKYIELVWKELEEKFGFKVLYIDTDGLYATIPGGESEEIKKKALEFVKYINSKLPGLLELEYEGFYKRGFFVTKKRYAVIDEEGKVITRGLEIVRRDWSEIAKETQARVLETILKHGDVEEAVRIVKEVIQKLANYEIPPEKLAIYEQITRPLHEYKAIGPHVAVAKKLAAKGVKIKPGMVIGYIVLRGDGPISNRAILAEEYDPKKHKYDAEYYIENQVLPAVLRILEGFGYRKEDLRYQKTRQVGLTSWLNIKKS
Method: as §1
as §3, with “BioLabs). […]” for “BioLabs).”

[10] = target: T2, Phi29 DNA polymerase (Bacillus phage phi29, UniProt P03680); assay: Rolling circle amplification of salmon sperm chromosomal DNA with terminal-phosphate labeled/blocked nucleoside polyphosphates; format: biochemical; conditions: 50 μm dT4P-DDAO with dA4P-Me, dG4P-Me, dC4P-Me, BAP, 30° C.
T2 sequence (P03680 1-575): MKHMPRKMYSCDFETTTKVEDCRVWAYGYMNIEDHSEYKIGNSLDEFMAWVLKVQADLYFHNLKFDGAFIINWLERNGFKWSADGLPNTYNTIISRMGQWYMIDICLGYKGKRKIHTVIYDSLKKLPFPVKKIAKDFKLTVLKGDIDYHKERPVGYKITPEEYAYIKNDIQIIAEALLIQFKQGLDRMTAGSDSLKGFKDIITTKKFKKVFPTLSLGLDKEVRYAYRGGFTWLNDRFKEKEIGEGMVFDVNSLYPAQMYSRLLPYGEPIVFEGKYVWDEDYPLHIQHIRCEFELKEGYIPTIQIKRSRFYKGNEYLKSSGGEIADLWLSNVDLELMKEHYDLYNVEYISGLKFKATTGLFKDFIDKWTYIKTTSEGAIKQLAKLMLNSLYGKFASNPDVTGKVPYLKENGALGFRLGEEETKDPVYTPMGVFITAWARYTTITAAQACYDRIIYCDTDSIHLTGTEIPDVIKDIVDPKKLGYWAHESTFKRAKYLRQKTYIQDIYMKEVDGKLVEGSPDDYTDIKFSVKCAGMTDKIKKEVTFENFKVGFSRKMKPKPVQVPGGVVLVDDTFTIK
Method: Varying amounts of denatured salmon sperm chromosomal DNA was taken in 25 mM Tris: borate buffer, pH 8.0, containing 5 mM ammonium sulfate, 75 mM NaCl, 5 mM MgCl2, 1 mM MnSO4, 0.01% Tween-20, 400 ng Phi29 DNA polymerase, 40 μm nuclease resistant random hexamers, 0.03 units of BAP and 50 μm each of dA4P-Me, dG4P-Me, dC4P-Me and dT4P-DDAO. Reactions were incubated at 30° C. in a Tecan fluorescent plate reader and were read every five minutes at excitation and emission wavelengths optimized for DDAO. Raw fluorescence counts are plotted as a function of time.

## CC1(C)C2=C(Cl)C(=O)C(Cl)=CC2=Nc2ccc(OP(=O)(O)OP(=O)(O)OP(=O)(O)OP(=O)(O)OC[C@H]3OC(n4cnc5c(=O)[nH]c(N)nc54)CC3O)cc21 (stereo partly shown) [dG4P-DDAO, δ-9H(1,3-dichloro-9,9-dimethylacridin-2-one-7-yl)-deoxyguanosine-5′-tetraphosphate]
[1]
  PCR amplification product on gel: successfully produced product of the expected size
[2]
  PCR amplification product on gel: successfully produced product of the expected size

## sodium vanadate
[3]
  PCR product formation in the presence of the additive: No product formed

## [Na+].[Na+].[O]=[W](=[O])([O-])[O-] [sodium tungstate]
[3]
  PCR product formation in the presence of the additive: PCR product was separated

## O=C(O)CP(=O)(O)O [phosphonoacetate]
[4]
  stabilization of dT4P-DDAO (% degradation): stabilize the nucleotide
[3]
  PCR product formation in the presence of the additive: No product formed

## CCCS(=O)(=O)O [propane sulfonate]
[4]
  stabilization of dT4P-DDAO (% degradation): minimal

## Cc1cc(=O)oc2cc(OP(=O)(O)OP(=O)(O)OP(=O)(O)OP(=O)(O)OC[C@H]3O[C@@H](n4cnc5c(=O)[nH]c(N)nc54)C[C@@H]3O)ccc12 [dG4P-MeCoumarin, 2′-Deoxyguanosine-5′-(δ-7-(4-methylumbelliferone)) tetraphosphate]
[1]
  PCR amplification product on gel: successfully produced product of the expected size
[2]
  PCR amplification product on gel: successfully produced product of the expected size

## OCC(O)CO [glycerol]
[5]
  effect of additive on degradation of ddT4P-EtFl caused by manganese: reduces the amount of degradation caused by manganese

## Cc1cn([C@H]2CC(O)[C@@H](COP(=O)(O)OP(=O)(O)OP(=O)(O)OP(=O)(O)Oc3ccc4c(c3)C(C)(C)C3=C(Cl)C(=O)C(Cl)=CC3=N4)O2)c(=O)[nH]c1=O (stereo partly shown) [dT4P-DDAO, δ-9H(1,3-dichloro-9,9-dimethylacridin-2-one-7-yl)-deoxythymidine-5′-tetraphosphate]
[6]; 0.2–0.4 mM MnCl2 versus 0 mM, DDAO-dT4P replaced dTTP
  increase of PCR yield in the presence of MnCl2: at least 5 fold
[6]; DDAO-dT4P replaced dTTP, pUCp53 template, 15 thermal cycles, FIG. 1
  PCR product on agarose gel: significant amounts of PCR product were made
[6]; lane 5 of FIG. 1, 0.2 mM MnCl2, 650 nm excitation, 670 nm emission
  fluorescence reading of PCR reaction product after shrimp alkaline phosphatase: 31,000 fluorescence units
[7]; DDAO-dT4P replaced dTTP
  PCR product: little or no detectable PCR product
[7]; 650 nm excitation, 670 nm emission
  fluorescence reading of PCR reaction product after shrimp alkaline phosphatase: 5500 fluorescence units
[8]
  PCR product: PCR product is made
[9]
  PCR product: PCR product is made
[1]
  PCR amplification product on gel: successfully produced product of the expected size
[2]
  PCR amplification product on gel: successfully produced product of the expected size
[10]; FIG. 10
  rate of product formation (slope 20–40 minutes) versus amount of input DNA: linear correlation
[10]; absence of input DNA, FIG. 9
  fluorescence signal: no signal is produced

## [Na+].[Na+].[O]=[Mo](=[O])([O-])[O-] [sodium molybdate]
[3]
  PCR product formation in the presence of the additive: PCR product was separated
